Test results reported in article PMC4869175, “Evidence that phytochrome functions as a protein kinase in plant light signalling” (Nature Communications, 2016).

Columns and labels:
Test in all cases: Binding parameters of ATP by Scatchard plot using BODIPY-FL-ATP
[1] = biological target: T1, K411L AsphyA mutant (Avena sativa, UniProt P06593, K411L)
T1 construct: After preparing purified full-length AsphyA mutants; made in house; host or cells: Pichia pastoris GS115
Experimental: (§1) To estimate dissociation constant (Kd) and the number of binding sites (n) of ATP in AsphyA proteins, an ATP analogue BODIPY-FL-ATP (BODIPY FL 2′-(or-3′)-O-(N-(2-aminoethyl)urethane) adenosine triphosphate; Molecular Probes) was used. 0.5 μM AsphyA proteins were incubated with increasing concentration of BODIPY-FL-ATP (0.5–5 μM) for 10 min at 30 °C, and free (unbound) ATP analogue was separated from the ATP analogue-protein complex by using Amicon Ultra Centrifugal Filter with MWCO of 10,000 Da for 5 min at 4,000g. The spectrophotometric absorbance was then measured to determine the BODIPY-FL-ATP concentrations within flow-through and the complex solutions by using Shimadzu UV-1800 spectrophotometer. […] The concentrations of BODIPY-FL-ATP were also double-checked by measuring the emission intensity of BODIPY fluorophore at the excitation wavelength of 500 nm and emission wavelength of 515 nm. The fluorescence of free BODIPY-FL-ATP in the absence of any protein component was used as a linear standard curve. The Kd and n values were then calculated by a Scatchard plot of r/[BODIPY-FL-ATP]free versus r, where r is the molar ratio of [BODIPY-FL-ATP]bound to [AsphyA]total.
(§2) Supplementary Figure 12. Determination of binding parameters of ATP in AsphyA proteins. The number of binding sites (n) and dissociation constant (Kd) of ATP in AsphyA proteins were determined by Scatchard plots using an ATP analogue, BODIPY-FL-ATP (BODIPY® FL 2′-(or-3′)-O-(N-(2-aminoethyl)urethane) adenosine triphosphate). The n and Kd values were calculated from the slopes (-1/Kd) and x-axis intercepts (n) of the Scatchard plot of r/[BODIPY-FL-ATP]free versus r, where r was the molar ratio of [BODIPY-FL-ATP]bound to [AsphyA]total. The n values of full-length (FL) AsphyA and photosensory core (66-610) were both calculated at around one per polypeptide, and the Kd values were calculated at approximately 0.87 × 10^-6 M for FL-AsphyA, 0.72 × 10^-6 M for […]
(§3) level, possibly due to too low ATP binding.
(§4) (1 picture or pasted object on this page, not shown here)

[2] = biological target: T2, T418D AsphyA mutant (Avena sativa, UniProt P06593, T418D)
T2 construct: After preparing purified full-length AsphyA mutants; made in house; host or cells: Pichia pastoris GS115
Experimental: as §1, §2, §3, §4

[3] = biological target: T3, D422R AsphyA mutant (Avena sativa, UniProt P06593, D422R); conditions: Scatchard plot with BODIPY-FL-ATP; result in words
T3 construct: After preparing purified full-length AsphyA mutants; made in house; host or cells: Pichia pastoris GS115
Experimental: as §1, §2, §3, §4

[4] = biological target: T4, photosensory core of AsphyA (66-610) (Avena sativa, UniProt P06593); conditions: as restated in Discussion; Scatchard plot with BODIPY-FL-ATP; read-out: Kd value (ATP-binding site)
T4 construct: the PAS-GAF-PHY photosensory core (66–610aa) were also cloned into pPIC3.5K; made in house; host or cells: Pichia pastoris GS115
T4 sequence (P06593 66-610): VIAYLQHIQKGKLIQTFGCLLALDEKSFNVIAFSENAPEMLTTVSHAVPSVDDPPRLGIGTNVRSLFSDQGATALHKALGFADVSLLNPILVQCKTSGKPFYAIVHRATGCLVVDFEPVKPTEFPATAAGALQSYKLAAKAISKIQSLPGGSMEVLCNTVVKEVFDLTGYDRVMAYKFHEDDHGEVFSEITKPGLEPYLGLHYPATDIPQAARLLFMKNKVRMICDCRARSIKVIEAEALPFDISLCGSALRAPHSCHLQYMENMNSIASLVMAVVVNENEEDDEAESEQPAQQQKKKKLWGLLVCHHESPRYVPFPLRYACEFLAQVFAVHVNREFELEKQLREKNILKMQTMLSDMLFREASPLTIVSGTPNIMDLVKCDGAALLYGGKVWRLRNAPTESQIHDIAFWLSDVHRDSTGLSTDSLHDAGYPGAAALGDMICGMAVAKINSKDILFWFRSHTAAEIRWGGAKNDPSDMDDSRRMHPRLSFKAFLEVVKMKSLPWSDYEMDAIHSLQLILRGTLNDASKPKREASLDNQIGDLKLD
Experimental: as §1, §2, §3, §4

[5] = biological target: T5, full-length AsphyA (Avena sativa, UniProt P06593); conditions: as restated in Discussion; Scatchard plot with BODIPY-FL-ATP; read-out: Kd value (ATP-binding site)
T5 construct: Full-length phytochrome genes of AsPHYA; made in house; host or cells: Pichia pastoris GS115
T5 sequence (P06593 1-1129): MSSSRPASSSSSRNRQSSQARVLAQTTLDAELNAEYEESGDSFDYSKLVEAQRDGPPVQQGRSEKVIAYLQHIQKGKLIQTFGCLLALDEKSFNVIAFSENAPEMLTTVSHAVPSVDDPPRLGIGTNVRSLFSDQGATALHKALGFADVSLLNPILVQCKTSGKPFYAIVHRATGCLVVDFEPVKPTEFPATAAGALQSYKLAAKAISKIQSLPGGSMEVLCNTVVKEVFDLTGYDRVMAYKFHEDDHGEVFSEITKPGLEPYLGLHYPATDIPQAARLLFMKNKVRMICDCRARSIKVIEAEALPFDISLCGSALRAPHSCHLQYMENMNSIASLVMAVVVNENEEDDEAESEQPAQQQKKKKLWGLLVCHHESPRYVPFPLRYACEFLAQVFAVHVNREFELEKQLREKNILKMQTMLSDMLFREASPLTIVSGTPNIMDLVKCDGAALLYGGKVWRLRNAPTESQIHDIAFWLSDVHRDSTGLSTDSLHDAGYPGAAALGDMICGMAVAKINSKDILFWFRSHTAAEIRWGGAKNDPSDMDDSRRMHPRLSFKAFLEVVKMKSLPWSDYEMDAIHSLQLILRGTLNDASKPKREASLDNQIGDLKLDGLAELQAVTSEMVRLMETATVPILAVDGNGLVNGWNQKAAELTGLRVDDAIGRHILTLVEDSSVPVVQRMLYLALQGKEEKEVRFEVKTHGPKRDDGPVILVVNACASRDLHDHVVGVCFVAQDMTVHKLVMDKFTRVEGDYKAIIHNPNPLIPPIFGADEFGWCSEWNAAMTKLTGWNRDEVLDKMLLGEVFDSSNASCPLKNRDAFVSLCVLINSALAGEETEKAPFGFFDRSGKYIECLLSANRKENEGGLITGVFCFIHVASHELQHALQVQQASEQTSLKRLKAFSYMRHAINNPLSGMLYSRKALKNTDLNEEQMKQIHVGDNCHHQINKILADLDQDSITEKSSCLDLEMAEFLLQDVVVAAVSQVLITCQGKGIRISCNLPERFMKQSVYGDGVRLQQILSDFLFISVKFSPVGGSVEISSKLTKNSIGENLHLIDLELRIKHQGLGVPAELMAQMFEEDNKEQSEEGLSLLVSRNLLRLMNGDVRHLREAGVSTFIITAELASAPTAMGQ
Experimental: as §1, §2, §3, §4

T3 sequence (P06593 whole entry D422R): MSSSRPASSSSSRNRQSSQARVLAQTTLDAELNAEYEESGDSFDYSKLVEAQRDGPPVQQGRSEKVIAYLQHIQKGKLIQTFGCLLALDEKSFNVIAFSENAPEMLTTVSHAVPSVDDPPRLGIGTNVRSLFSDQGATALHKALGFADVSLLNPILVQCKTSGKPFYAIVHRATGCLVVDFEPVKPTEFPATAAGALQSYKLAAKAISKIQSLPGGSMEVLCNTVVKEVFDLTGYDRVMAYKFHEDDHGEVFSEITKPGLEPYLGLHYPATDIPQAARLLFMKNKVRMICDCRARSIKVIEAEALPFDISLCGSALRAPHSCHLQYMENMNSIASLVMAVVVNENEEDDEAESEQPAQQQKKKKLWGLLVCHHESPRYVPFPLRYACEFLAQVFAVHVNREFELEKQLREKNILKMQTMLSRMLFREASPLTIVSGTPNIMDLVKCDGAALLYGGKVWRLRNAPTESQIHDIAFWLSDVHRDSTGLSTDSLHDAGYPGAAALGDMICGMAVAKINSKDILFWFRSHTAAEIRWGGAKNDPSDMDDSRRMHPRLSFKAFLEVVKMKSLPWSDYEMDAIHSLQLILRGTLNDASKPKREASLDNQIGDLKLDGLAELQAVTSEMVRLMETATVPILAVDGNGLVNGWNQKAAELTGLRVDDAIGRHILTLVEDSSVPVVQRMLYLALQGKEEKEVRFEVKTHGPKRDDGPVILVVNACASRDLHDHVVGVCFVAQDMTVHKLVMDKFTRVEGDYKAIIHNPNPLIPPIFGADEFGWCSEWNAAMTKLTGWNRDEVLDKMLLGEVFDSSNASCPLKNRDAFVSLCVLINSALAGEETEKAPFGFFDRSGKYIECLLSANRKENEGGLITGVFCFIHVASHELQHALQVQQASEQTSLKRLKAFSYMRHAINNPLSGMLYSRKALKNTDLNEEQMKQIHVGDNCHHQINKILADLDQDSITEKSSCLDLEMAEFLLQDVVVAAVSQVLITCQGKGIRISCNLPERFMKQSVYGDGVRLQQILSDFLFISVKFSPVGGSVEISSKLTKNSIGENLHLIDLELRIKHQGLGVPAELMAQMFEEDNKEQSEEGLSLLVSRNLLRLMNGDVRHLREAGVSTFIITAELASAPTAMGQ
T2 sequence (P06593 whole entry T418D): as the sequence (P06593 whole entry D422R) above, with T418D, R422D counted along it
T1 sequence (P06593 whole entry K411L): as the sequence (P06593 whole entry D422R) above, with K411L, R422D counted along it

Compound: Nc1ncnc2c1ncn2[C@@H]1O[C@H](COP(=O)(O)OP(=O)(O)OP(=O)(O)O)[C@@H](O)[C@H]1O [ATP]
- Kd [1]: ~1.32 µM
- Kd [2]: 4.76 µM
- dissociation constant (Kd) of ATP [3]: could not obtain the Kd value at micromolar level
- Kd [4]: 0.72 µM
- Kd [5]: 0.87 µM
